Measured values as given in patent US8648085B2, “1, 5-dihydro-pyrazolo (3, 4-D) pyrimidin-4-one derivatives and their use as PDE9A mudulators for the treatment of CNS disorders” (Boehringer Ingelheim International GmbH, priority 2007, dated 2014).

Key:
PDE1C = biological target: T1, PDE1C (Homo sapiens, UniProt Q14123); test: PDE enzymatic activity assay (SPA), PDE1C, cAMP as substrate; format: biochemical; settings: ratio IC50 PDE1C / IC50 PDE9A; for illustrative purposes
T1 construct: made in house; host or cells: SF9 insect cells (crude lysate used as enzyme source)
Description: (§1) The PDE enzymatic activity assays were run as SPA, in general according to the protocol of the manufacturer (Amersham Biosciences, product number: TRKQ 7100). As enzyme source, lysate (PBS with 1% Triton X-100 supplemented with protease inhibitors, cell debris removed by centrifugation at 13.000 rpm for 30 min) of SF 9 cell expressing the human PDE of interest was used. The total protein amount included in the assay varied upon infection and production efficacy of the SF9 cells and lay in the range of […].
(§2) In general, the assay conditions were as follows: • total assay volume: 40 μl • protein amount: 0.1-50 ng • substrate concentration (cGMP or cAMP): 20 nM; ˜1 mCi/l • incubation time: 60 min at room temperature • final DMSO concentration: 1%
(§3) The assays were run in 384-well format. The test reagents as well as the enzyme and the substrate were diluted in assay buffer. The assay buffer contained 50 mM Tris, 8.3 mM MgCl2, 1.7 mM EGTA, 0.1% BSA, 0.05% Tween 20; the pH of assay buffer was adjusted to 7.5. In case activity of PDE1C was analysed, 50 nM Calmodulin and 3 mM CaCl2 were included in the assay buffer. In case PDE9 activity was analyzed, the reaction was stopped by applying a PDE9 specific inhibitor (e.g. compounds according to WO2004/099210). PDE1C was analysed with cAMP as substrate, and PDE9 was analyzed with cGMP as substrate.
(§4) IC50 can be calculated in a conventional way, eventually with the help of GraphPadPrism or other suited software setting the positive control as 100 and the negative control as 0. For calculation of IC50 usually 8 dilutions of the test compound ([…]) are to be selected and tested following the aforementioned protocol.

PDE9A = PDE9A (Homo sapiens, UniProt O76083); test: PDE enzymatic activity assay (SPA), PDE9A; format: biochemical; design: made in house; host or cells: SF9 insect cells (crude lysate used as enzyme source); settings: cGMP substrate, for illustrative purposes; for inhibition at 10 µM: 10 micromolar; for IC50: given as ranges
Sequence of PDE9A (O76083 whole entry): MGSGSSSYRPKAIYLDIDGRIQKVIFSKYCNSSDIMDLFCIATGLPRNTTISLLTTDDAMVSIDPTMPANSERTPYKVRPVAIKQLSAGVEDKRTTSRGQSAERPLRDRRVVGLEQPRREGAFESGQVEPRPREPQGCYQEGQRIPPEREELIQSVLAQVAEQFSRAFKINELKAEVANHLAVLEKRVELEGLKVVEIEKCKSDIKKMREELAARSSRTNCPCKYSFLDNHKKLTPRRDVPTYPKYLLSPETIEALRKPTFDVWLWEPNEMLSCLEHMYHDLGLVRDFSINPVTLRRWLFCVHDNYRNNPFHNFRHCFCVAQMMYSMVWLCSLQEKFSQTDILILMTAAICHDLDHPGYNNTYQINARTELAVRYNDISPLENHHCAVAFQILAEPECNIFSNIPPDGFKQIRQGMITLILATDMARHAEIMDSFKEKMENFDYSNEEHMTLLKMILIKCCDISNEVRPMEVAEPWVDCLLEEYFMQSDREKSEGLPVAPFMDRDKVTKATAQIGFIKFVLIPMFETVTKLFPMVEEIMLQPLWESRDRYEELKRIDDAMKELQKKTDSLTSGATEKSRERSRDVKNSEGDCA
Description: as §1, §2, §3
Calculation of % Inhibition:
The activity of the positive control (minus the negative control=background) is set to 100% and activity in the presence of test compound is expressed relative to these 100%.
Within this setting, an inhibition above 100% might be possible due to the nature of the variation of the positive control within the assay, however, in this case the reported % inhibition had been adjusted to 100%.
as §4

Structure (SMILES) | Selectivity = IC50 PDE 1C/IC50 PDE9A (both nanomolar) (PDE1C) | inhibition at 10 µM (PDE9A) [%] | IC50 (PDE9A) [nM]
Cc1ccccc1-n1ncc2c(=O)[nH]c(Cc3ccccc3OC(F)(F)F)nc21 [Example 2, 1-o-Tolyl-6-(2-trifluoromethoxy-benzyl)-1,5-dihydro-pyrazolo[3,4-d] pyrimidin-4-one] | 14 | 98 | 10 to 500
Cc1ccc(Cl)c(-n2ncc3c(=O)[nH]c(Cc4ccccc4OC(F)(F)F)nc32)c1 [Example 3, 1-(2-Chloro-5-methyl-phenyl)-6-(2-trifluoromethoxy-benzyl)-1,5-dihydro-pyrazolo[3,4-d]pyrimidin-4-one] | 4 | 95 | 10 to 500
COc1ccc(Cl)cc1-n1ncc2c(=O)[nH]c(Cc3ccccc3OC(F)(F)F)nc21 [Example 4, 1-(5-Chloro-2-methoxy-phenyl)-6-(2-trifluoromethoxy-benzyl)-1,5-dihydro-pyrazolo[3,4-d]pyrimidin-4-one] | 88 | 102 | 10 to 500
O=c1[nH]c(Cc2ccccc2OC(F)(F)F)nc2c1cnn2-c1cc(F)ccc1Cl [Example 5, 1-(2-Chloro-5-fluoro-phenyl)-6-(2-trifluoromethoxy-benzyl)-1,5-dihydro-pyrazolo[3,4-d]pyrimidin-4-one] | 7 | 96 | 10 to 500
O=c1[nH]c(Cc2ccccc2OC(F)(F)F)nc2c1cnn2-c1cc(Br)ccc1Cl [Example 6, 1-(5-Bromo-2-chloro-phenyl)-6-(2-trifluoromethoxy-benzyl)-1,5-dihydro-pyrazolo[3,4-d]pyrimidin-4-one] | 112 | 88 | 10 to 500
O=c1[nH]c(Cc2ccccc2OC(F)(F)F)nc2c1cnn2-c1cc(F)ccc1Br [Example 7, 1-(2-Bromo-5-fluoro-phenyl)-6-(2-trifluoromethoxy-benzyl)-1,5-dihydro-pyrazolo[3,4-d]pyrimidin-4-one] | 9 | 91 | 10 to 500
O=c1[nH]c(Cc2ccccc2OC(F)(F)F)nc2c1cnn2-c1cc(Cl)ccc1Br [Example 8, 1-(2-Bromo-5-chloro-phenyl)-6-(2-trifluoromethoxy-benzyl)-1,5-dihydro-pyrazolo[3,4-d]pyrimidin-4-one] | 21 | 93 | 10 to 500
O=c1[nH]c(Cc2ccccc2OC(F)(F)F)nc2c1cnn2-c1ccc(F)cc1Br [Example 9, 1-(2-Bromo-4-fluoro-phenyl)-6-(2-trifluoromethoxy-benzyl)-1,5-dihydro-pyrazolo[3,4-d]pyrimidin-4-one] | 6 | 90 | 10 to 500
Cc1ccc(Br)c(-n2ncc3c(=O)[nH]c(Cc4ccccc4OC(F)(F)F)nc32)c1 [Example 10, 1-(2-Bromo-5-methyl-phenyl)-6-(2-trifluoromethoxy-benzyl)-1,5-dihydro-pyrazolo[3,4-d]pyrimidin-4-one] | 7 | 88 | > 500
O=c1[nH]c(Cc2ccccc2OC(F)(F)F)nc2c1cnn2-c1ccc(F)cc1F [Example 12, 1-(2,4-Difluoro-phenyl)-6-(2-trifluoromethoxy-benzyl)-1,5-dihydro-pyrazolo[3,4-d]pyrimidin-4-one] | 8 | 102 | 10 to 500
O=c1[nH]c(Cc2ccccc2OC(F)(F)F)nc2c1cnn2-c1ccc(F)cc1Cl [Example 13, 1-(2-Chloro-4-fluoro-phenyl)-6-(2-trifluoromethoxy-benzyl)-1,5-dihydro-pyrazolo[3,4-d]pyrimidin-4-one] | 10 | 96 | 10 to 500
Cc1ccc(C)c(-n2ncc3c(=O)[nH]c(Cc4ccccc4OC(F)(F)F)nc32)c1 [Example 18, 1-(2,5-Dimethyl-phenyl)-6-(2-trifluoromethoxy-benzyl)-1,5-ihydro-pyrazolo[3,4-d]pyrimidin-4-one] | 28 | 86 | 10 to 500
CCOc1ccc(Cl)c(-n2ncc3c(=O)[nH]c(Cc4ccccc4OC(F)(F)F)nc32)c1 [Example 20, 1-(2-Chloro-5-ethoxy-phenyl)-6-(2-trifluoromethoxy-benzyl)-1,5-dihydro-pyrazolo[3,4-d]pyrimidin-4-one] | 4 | 87 | 10 to 500
Cc1cc(F)c(F)cc1-n1ncc2c(=O)[nH]c(Cc3ccccc3OC(F)(F)F)nc21 [Example 21, 1-(4,5-Difluoro-2-methyl-phenyl)-6-(2-trifluoromethoxy-benzyl)-1,5-dihydro-pyrazolo[3,4-d]pyrimidin-4-one] | 93 | 91 | 10 to 500
Cc1cc(-n2ncc3c(=O)[nH]c(Cc4ccccc4OC(F)(F)F)nc32)c(Cl)cc1F [Example 23, 1-(2-Chloro-4-fluoro-5-methyl-phenyl)-6-(2-trifluoromethoxy-benzyl)-1,5-dihydro-pyrazolo[3,4-d]pyrimidin-4-one] | 46 | 85 | > 500
Cc1cccc(Cl)c1-n1ncc2c(=O)[nH]c(Cc3ccccc3OC(F)(F)F)nc21 [Example 24, 1-(2-Chloro-6-methyl-phenyl)-6-(2-trifluoromethoxy-benzyl)-1,5-dihydro-pyrazolo[3,4-d]pyrimidin-4-one] | 49 | 87 | > 500

Other lines, results leading:

Selectivity = IC50 PDE 1C/IC50 PDE9A (both nanomolar) (PDE1C) | inhibition at 10 µM (PDE9A) [%] | IC50 (PDE9A) [nM] | Structure (SMILES)
39 | 99 | 10 to 500 | Cc1ccncc1-n1ncc2c(=O)[nH]c(Cc3ccccc3OC(F)(F)F)nc21 [Example 1, 1-(4-Methyl-pyridin-3-yl)-6-(2-tri-fluoromethoxy-benzyl)-1,5-dihydro-pyrazolo[3,4-d]pyrimidin-4-one]
21 | 47 | > 500 | O=c1[nH]c(Cc2ccccc2OC(F)(F)F)nc2c1cnn2-c1ccc(F)cc1 [Example 11, 1-(4-Fluoro-phenyl)-6-(2-trifluoromethoxy-benzyl)-1,5-dihydro-pyrazolo[3,4-d]pyrimidin-4-one]
14 | 95 | 10 to 500 | Cc1ccc(F)cc1-n1ncc2c(=O)[nH]c(Cc3ccccc3OC(F)(F)F)nc21 [Example 14, 1-(5-Fluoro-2-methyl-phenyl)-6-(2-trifluoromethoxy-benzyl)-1,5-dihydro-pyrazolo[3,4-d]pyrimidin-4-one]
271 | 94 | 10 to 500 | Cc1ccc(Cl)cc1-n1ncc2c(=O)[nH]c(Cc3ccccc3OC(F)(F)F)nc21 [Example 15, 1-(5-Chloro-2-methyl-phenyl)-6-(2-trifluoromethoxy-benzyl)-1,5-dihydro-pyrazolo[3,4-d]pyrimidin-4-one]
71 | 93 | 10 to 500 | O=c1[nH]c(Cc2ccccc2OC(F)(F)F)nc2c1cnn2-c1cc(Cl)ccc1Cl [Example 16, 1-(2,5-Dichloro-phenyl)-6-(2-trifluoromethoxy-benzyl)-1,5-dihydro-pyrazolo[3,4-d]pyrimidin-4-one]
9 | 98 | 10 to 500 | Cc1cc(F)ccc1-n1ncc2c(=O)[nH]c(Cc3ccccc3OC(F)(F)F)nc21 [Example 17, 1-(4-Fluoro-2-methyl-phenyl)-6-(2-trifluoromethoxy-benzyl)-1,5-dihydro-pyrazolo[3,4-d]pyrimidin-4-one]
5 | 74 | 10 to 500 | Cc1cccc(-n2ncc3c(=O)[nH]c(Cc4ccccc4OC(F)(F)F)nc32)c1C [Example 19, 1-(2,3-Dimethyl-phenyl)-6-(2-trifluoromethoxy-benzyl)-1,5-dihydro-pyrazolo[3,4-d] pyrimidin-4-one]
14 | 98 | 10 to 500 | COc1ccc(Cl)c(-n2ncc3c(=O)[nH]c(Cc4ccccc4OC(F)(F)F)nc32)c1 [Example 22, 1-(2-Chloro-5-methoxy-phenyl)-6-(2-trifluoromethoxy-benzyl)-1,5-dihydro-pyrazolo[3,4-d]pyrimidin-4-one]
